System: Candida albicans
Assay: Oral and parenteral in vivo efficacy in mice experimentally infected with Candida albicans (survival time)
Design: species or system Mäusen (Stamm HOE: NMRKF; SPF 71)
Conditions: for d̄ Tage: mean survival time of 5 mice; for Überlebenszeit in % (Standardpräp.= 100%): relative to Ketoconazol = 100%
Description: Zur Feststellung der oralen und parenteralen Wirksamkeit wurden Gruppen von je 5 18-20 g schweren Mäusen (Stamm HOE: NMRKF; SPF 71) mit 2 . 10^6 Keimen/Tier infiziert.
Die Behandlung der Tiere erfolgte oral bzw. subcutan in 8 gleichen Einzeldosen zu je 30 mg/kg bzw. 10 mg/kg Körpergewicht (-24/-18/-2h/+2/24/30/48/54h).
Neben der mit den erfindungsgemäßen Substanzen I behandelten Gruppe von 5 Tieren wurde zum Vergleich eine Gruppe von ebenfalls 5 Tieren mit der Referenzsubstanz Ketoconazol behandelt. Eine kontrollgruppe von 10 Tieren blieb nach der Infektion unbehandelt.

| Compound | d̄ Tage (Oral 8x10 mg/kg) | Überlebenszeit in % (Standardpräp.= 100%) (Oral 8x10 mg/kg) | d̄ Tage (Oral 8x30 mg/kg) | Überlebenszeit in % (Standardpräp.= 100%) (Oral 8x30 mg/kg) | d̄ Tage (Subcutan 8x10 mg/kg) | Überlebenszeit in % (Standardpräp.= 100%) (Subcutan 8x10 mg/kg) | d̄ Tage (Subcutan 8x30 mg/kg) | Überlebenszeit in % (Standardpräp.= 100%) (Subcutan 8x30 mg/kg) |
| --- | --- | --- | --- | --- | --- | --- | --- | --- |
| OC(Cn1cncn1)(c1ccc(F)cc1)C1CC1c1ccc(Cl)cc1Cl (single isomer, unassigned) [27 b] | 9,2 Tage | 164,3% | 11,6 Tage | 145,0% | 10,4 Tage | 162,5% | 12,6 Tage | 157,5% |
| OC(Cn1cncn1)(c1ccc(Cl)cc1Cl)C1CC1c1ccc(Cl)cc1 (single isomer, unassigned) [29 a] | 6,8 Tage | 121,4% | 9,8 Tage | 122,5% | 7,2 Tage | 112,5% | 11,4 Tage | 142,5% |
| OC(Cn1cncn1)(c1ccc(Cl)cc1)C1CC1c1ccc(Cl)cc1 (single isomer, unassigned) [34 b] | 11,6 Tage | 207,1% | 13,0 Tage | 162,5% | 11,0 Tage | 171,9% | 8,0 Tage | 100,0% |
| CC(=O)N1CCN(c2ccc(OCC3COC(Cn4ccnc4)(c4ccc(Cl)cc4Cl)O3)cc2)CC1 (centres unmarked) [Ketoconazol, reference compound] | 5,6 Tage | 100,0% | 8,0 Tage | 100,0% | 6,4 Tage | 100,0% | 8,0 Tage | 100,0% |
